Measured values as given in PubChem BioAssay AID1963865 (Molecular Pharmacology Branch, DTP, NCI, 2024).

System: KRAS PDC multicell spheroid viability
Experiment: Anticancer human tumor 825966-067-R-J1-PDC patient-derived colon carcinoma cell line growth inhibition [KRAS2]
Details: for IC50: curve of first compound; for viability, T/C: stronger effect = lower value
Summary of the method: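 KRAS-mutant tumor cells were grown as spheroids with HUVEC endothelial cells and human MSCs as stroma. Targeted agents were tested alone and with KRAS pathway inhibitors. Doses started at or near clinical Cmax, or 10 microM, descending half-log.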

[1] = second compound 0.1 µM, first compound 0.0316 µM
[2] = second compound 0.1 µM, first compound 0.1 µM
[3] = second compound 0.1 µM, first compound 0.316 µM
[4] = second compound 0.1 µM, first compound 1 µM
[5] = second compound 0.1 µM, first compound 3.16 µM
[6] = second compound 0.1 µM, first compound 10 µM
[7] = second compound 0.316 µM, first compound 0.0316 µM
[8] = second compound 0.316 µM, first compound 0.1 µM
[9] = second compound 0.316 µM, first compound 0.316 µM
[10] = second compound 0.316 µM, first compound 1 µM
[11] = second compound 0.316 µM, first compound 3.16 µM
[12] = second compound 0.316 µM, first compound 10 µM
[13] = second compound 1 µM, first compound 0.0316 µM
[14] = second compound 1 µM, first compound 0.1 µM
[15] = second compound 1 µM, first compound 0.316 µM
[16] = second compound 1 µM, first compound 1 µM
[17] = second compound 1 µM, first compound 3.16 µM
[18] = second compound 1 µM, first compound 10 µM
[19] = second compound 3.16 µM, first compound 0.0316 µM
[20] = second compound 3.16 µM, first compound 0.1 µM
[21] = second compound 3.16 µM, first compound 0.316 µM
[22] = second compound 3.16 µM, first compound 1 µM
[23] = second compound 3.16 µM, first compound 3.16 µM
[24] = second compound 3.16 µM, first compound 10 µM
[25] = second compound 10 µM, first compound 0.0316 µM
[26] = second compound 10 µM, first compound 0.1 µM
[27] = second compound 10 µM, first compound 0.316 µM
[28] = second compound 10 µM, first compound 1 µM
[29] = second compound 10 µM, first compound 3.16 µM
[30] = second compound 10 µM, first compound 10 µM
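Also: spheroids exposed to compounds for 7 days.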
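For viability, T/C in this document: 100% = DMSO vehicle control viability.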

Compound | IC50 (second compound 0.1 µM) | IC50 (second compound 0.316 µM) | IC50 (second compound 1 µM) | IC50 (second compound 3.16 µM) | IC50 (second compound 10 µM) | viability, T/C [1] | viability, T/C [2] | viability, T/C [3] | viability, T/C [4] | viability, T/C [5] | viability, T/C [6] | viability, T/C [7] | viability, T/C [8] | viability, T/C [9] | viability, T/C [10] | viability, T/C [11] | viability, T/C [12] | viability, T/C [13] | viability, T/C [14] | viability, T/C [15] | other results
CC1OCC2(CCN(c3cnc(Sc4ccnc(N)c4Cl)c(N)n3)CC2)C1N (stereo not given) + C=CC(=O)N1CCN(c2nc(=O)n(-c3c(C)ccnc3C(C)C)c3nc(-c4c(O)cccc4F)c(F)cc23)C(C)C1 | 9.58 µM | 6.95 µM | 7.78 µM | 6.05 µM | 4.49 µM | 78.4% | 66.8% | 98.4% | 85% | 94.1% | 48.6% | 82.8% | 96.1% | 79.4% | 78.3% | 94.1% | 33.3% | 82.1% | 69.3% | 74.8% | viability, T/C [16]: 75.5%; viability, T/C [17]: 76.3%; viability, T/C [18]: 43.1%; viability, T/C [19]: 93.5%; viability, T/C [20]: 70.1%; viability, T/C [21]: 83.2%; viability, T/C [22]: 81%; viability, T/C [23]: 90.4%; viability, T/C [24]: 23.9%; viability, T/C [25]: 80.5%; viability, T/C [26]: 74.3%; viability, T/C [27]: 106%; viability, T/C [28]: 92.9%; viability, T/C [29]: 70.1%; viability, T/C [30]: 4.36%
COc1cc(Nc2ncc3c(n2)-c2ccc(Cl)cc2C(c2c(F)cccc2OC)=NC3)ccc1C(=O)O + COc1cc2nc(C)nc(NC(C)c3cc(N)cc(C(F)(F)F)c3)c2cc1OC1CCOC1 | > 10 µM | > 10 µM | > 10 µM | > 10 µM | < 0.0316 µM | 124% | 93.5% | 144% | 171% | 136% | 130% | 105% | 123% | 144% | 140% | 133% | 145% | 87% | 155% | 156% | viability, T/C [16]: 137%; viability, T/C [17]: 145%; viability, T/C [18]: 118%; viability, T/C [19]: 52%; viability, T/C [20]: 127%; viability, T/C [21]: 81.3%; viability, T/C [22]: 110%; viability, T/C [23]: 69.3%; viability, T/C [24]: 112%; viability, T/C [25]: 3.07%; viability, T/C [26]: 1.62%; viability, T/C [27]: 0.85%; viability, T/C [28]: 2.07%; viability, T/C [29]: 7.95%; viability, T/C [30]: 1.44%
